Test results from patent US20150175530A1, “ANTIBACTERIAL AGENTS” (priority 2012, published 2015).
Converted amounts (≈) assume the structure as drawn. Like-named read-outs stand apart in the source and are kept apart here.

Tests used:
[1] = system: 3 P. aeruginosa strains (APAE001, APAE002, APAE006); assay: Protein binding: fold change in MIC in the presence of 2% HSA and 0.05% AGP, Geomean of 3 strains; format: cell-based, Pseudomonas aeruginosa; settings: MIC in the presence of 2% HSA and 0.05% AGP divided by MIC in the absence; Geomean of 3 P. aeruginosa strains (APAE001, APAE002, APAE006)
Procedure: The effect of human serum albumin (HSA) and α-1-acid glycoprotein (AGP) from human plasma, which are known to nonspecifically bind to certain antibiotics and thereby reduce their activity (Banéres-Roquet et al. 2009 “Use of a Surface Plasmon Resonance Method to Investigate Antibiotic and Plasma Protein Interactions” Antimicrob. Agents and Chemother. 53(4):1528-1531), was assessed against 3 P. aeruginosa strains (APAE001, APAE002, APAE006). APAE001 is Pseudomonas aeruginosa ATCC27853; APAE002 is a wildtype lab strain of Pseudomonas aeruginosa known as PAM1020 or PA01. APAE006 is a strain of […]/PA01 with efflux deletions: delta mexAB-oprM::CM delta CD-oprJ::Gm delta mexEF-oprN::omega Hg. Lomovskaya, 0 et al. 1999. Use of a Genetic Approach To Evaluate the Consequences of Inhibition of Efflux Pumps in P aeruginosa. Antimicrob. Agents Chemother. 43: 1340-1346.
The standard procedure described in Susceptibility Testing was utilized with one adjustment, specifically 2% HSA and 0.05% AGP were added to the cation adjusted Mueller-Hinton Broth. The MIC for each strain of interest was then assessed in the presence and absence of HSA/AGP. Following MIC determination, the fold change in MIC was determined for each individual strain by dividing the MIC in the presence of HSA/AGP by the MIC in the absence of HSA/AGP. The protein binding Geomean was then calculated using these 3 values.

[2] = system: bacterial isolates (clinical isolates and ATCC quality control strains); assay: Minimum Inhibitory Concentrations (MICs) by broth microdilution (CLSI susceptibility testing); format: cell-based
Procedure: Bacterial isolates were cultivated from −70° C. frozen stocks by overnight passages at 35° C. in ambient air on Mueller-Hinton agar (Beckton Dickinson, Franklin Lakes, N.J.). Clinical isolates tested were obtained from various geographically diverse hospitals in the US and abroad (Focus Diagnostics, Herndon, Va. and JMI, North Liberty, Iowa). Quality control strains were from the American Type Culture Collection (ATCC; Rockville, Md.).
Minimum Inhibitory Concentrations (MICs) were determined by the broth microdilution method in accordance with the Clinical and Laboratory Standards Institute (CLSI) guidelines. In brief, organism suspensions were adjusted to a 0.5 McFarland standard to yield a final inoculum between 3×10^5 and 7×10^5 colony-forming units (CFU)/mL. Drug dilutions and inocula were made in sterile, cation adjusted Mueller-Hinton Broth (Beckton Dickinson). An inoculum volume of 100 μL was added to wells containing 100 μL of broth with 2-fold serial dilutions of drug. All inoculated microdilution trays were incubated in ambient air at 35° C. for 18-24 h. Following incubation, the lowest concentration of the drug that prevented visible growth (OD600 nm<0.05) was recorded as the MIC. Performance of the assay was monitored by the use of laboratory quality-control strains and levofloxacin, a compound with a defined MIC spectrum, in accordance with CLSI guidelines.

[3] = APAE1096 is a clinical isolate, broth microdilution, read-out: Minimum Inhibitory Concentrations (MICs) APAE1096
[4] = Pseudomonas aeruginosa, APAE002 is a wildtype lab strain of Pseudomonas aeruginosa known as PAM1020 or PA01, broth microdilution, read-out: Minimum Inhibitory Concentrations (MICs) APAE002
[5] = Pseudomonas aeruginosa, ATCC27853, APAE001 is Pseudomonas aeruginosa ATCC27853, broth microdilution, read-out: Minimum Inhibitory Concentrations (MICs) APAE001

| Compound | Protein Binding PB (Geomean of fold change in MIC) [1] | MIC [2, 3] [µg/mL] | MIC [2, 4] [µg/mL] | MIC [2, 5] [µg/mL] | MIC ([2]; Pseudomonas aeruginosa, ATCC27853, read-out: Minimum Inhibitory Concentrations (MICs) APAE001) [µg/mL] | MIC ([2]; Pseudomonas aeruginosa, read-out: Minimum Inhibitory Concentrations (MICs) APAE002) [µg/mL] | MIC ([2]; read-out: Minimum Inhibitory Concentrations (MICs) APAE1096) [µg/mL] |
| --- | --- | --- | --- | --- | --- | --- | --- |
| CC(C)(NCc1c[nH]cn1)[C@H](NC(=O)c1ccc(C#CC#CCCO)cc1)C(=O)NO [Compound 13, (S)—N-(3-((1H-imidazol-4-yl)methylamino)-1-(hydroxyamino)-3-methyl-1-oxobutan-2-yl)-4-(6-hydroxyhexa-1,3-diynyl)benzamide] | 1.4 | 1 to 8 (≈ 2.36 to 18.9 µM) | 1 to 8 (≈ 2.36 to 18.9 µM) | < 1 |  |  |  |
| C[C@H](O)C#CC#Cc1ccc(C(=O)N[C@H](C(=O)NO)C(C)(C)N)cc1 [Compound 14, N—((S)-3-amino-1-(hydroxyamino)-3-methyl-1-oxobutan-2-yl)-4-((S)-5-hydroxyhexa-1,3-diynyl)benzamide] | 3.4 | 1 to 8 (≈ 2.91 to 23.3 µM) | < 1 | < 1 |  |  |  |
| C[C@@H](O)C#CC#Cc1ccc(C(=O)N[C@H](C(=O)NO)C(C)(C)N)cc1 [Compound 15, N—((S)-3-amino-1-(hydroxyamino)-3-methyl-1-oxobutan-2-yl)-4-((R)-5-hydroxyhexa-1,3-diynyl)benzamide] | 2.3 | < 1 | < 1 | < 1 |  |  |  |
| CNC(C)(C)[C@H](NC(=O)c1ccc(C#CC#C[C@H](C)O)cc1)C(=O)NO [Compound 16, N—((S)-1-(hydroxyamino)-3-methyl-3-(methylamino)-1-oxobutan-2-yl)-4-((S)-5-hydroxyhexa-1,3-diynyl)benzamide] | 3.6 | 1 to 8 (≈ 2.8 to 22.4 µM) | < 1 | < 1 |  |  |  |
| CC(C)(N)[C@H](NC(=O)c1ccc(C#CC#CC(O)CO)cc1)C(=O)NO (stereo partly drawn) [Compound 17, N—((S)-3-amino-1-(hydroxyamino)-3-methyl-1-oxobutan-2-yl)-4-(5,6-dihydroxyhexa-1,3-diynyl)benzamide] | 1.5 |  |  |  | 1 to 8 (≈ 2.78 to 22.3 µM) | 1 to 8 (≈ 2.78 to 22.3 µM) | 8 to 16 (≈ 22.3 to 44.5 µM) |
| CC(C)(N)[C@H](NC(=O)c1ccc(C#CC#CC(CO)CO)cc1)C(=O)NO [Compound 18, (S)—N-(3-amino-1-(hydroxyamino)-3-methyl-1-oxobutan-2-yl)-4-(6-hydroxy-5-(hydroxymethyl)hexa-1,3-diynyl)benzamide] | 1.6 | 8 to 16 (≈ 21.4 to 42.8 µM) | 1 to 8 (≈ 2.68 to 21.4 µM) | 1 to 8 (≈ 2.68 to 21.4 µM) |  |  |  |
| CC(C)(N)[C@H](NC(=O)c1ccc(C#CC#CC(O)(CO)CCl)cc1)C(=O)NO (stereo partly drawn) [Compound 19, N—((S)-3-amino-1-(hydroxyamino)-3-methyl-1-oxobutan-2-yl)-4-(6-chloro-5-hydroxy-5-(hydroxymethyl)hexa-1,3-diynyl)benzamide] | 1.0 | 1 to 8 (≈ 2.45 to 19.6 µM) | 1 to 8 (≈ 2.45 to 19.6 µM) | < 1 |  |  |  |
| CC(C)(N)[C@H](NC(=O)c1ccc(C#CC#CCC(O)CO)cc1)C(=O)NO (stereo partly drawn) [Compound 21, N—((S)-3-amino-1-(hydroxyamino)-3-methyl-1-oxobutan-2-yl)-4-(6,7-dihydroxyhepta-1,3-diynyl)benzamide] | 1.9 | 1 to 8 (≈ 2.68 to 21.4 µM) | 1 to 8 (≈ 2.68 to 21.4 µM) | 1 to 8 (≈ 2.68 to 21.4 µM) |  |  |  |
| CNC(C)(C)[C@H](NC(=O)c1ccc(C#CC#CCC(O)CO)cc1)C(=O)NO (stereo partly drawn) [Compound 22, 4-(6,7-dihydroxyhepta-1,3-diynyl)-N—((S)-1-(hydroxyamino)-3-methyl-3-(methylamino)-1-oxobutan-2-yl)benzamide] | 1.6 | 1 to 8 (≈ 2.58 to 20.6 µM) | < 1 | < 1 |  |  |  |
| CC(C)(N)[C@H](NC(=O)c1ccc(C#CC#C[C@@H]2[C@@H](CO)[C@H]2CO)cc1)C(=O)NO [Compound 23A, N—((S)-3-amino-1-(hydroxyamino)-3-methyl-1-oxobutan-2-yl)-4-(((1S,2R,3S)-2,3-bis(hydroxymethyl)cyclopropyl)buta-1,3-diynyl)benzamide] | 2.3 | 8 to 16 (≈ 20 to 40.1 µM) | 1 to 8 (≈ 2.5 to 20 µM) | 1 to 8 (≈ 2.5 to 20 µM) |  |  |  |
| CC(C)(N)[C@H](NC(=O)c1ccc(C#CC#C[C@H]2[C@@H](CO)[C@H]2CO)cc1)C(=O)NO [Compound 23B, N—((S)-3-amino-1-(hydroxyamino)-3-methyl-1-oxobutan-2-yl)-4-(((1R,2R,3S)-2,3-bis(hydroxymethyl)cyclopropyl)buta-1,3-diynyl)benzamide] | 2.0 | 8 to 16 (≈ 20 to 40.1 µM) | 1 to 8 (≈ 2.5 to 20 µM) | 1 to 8 (≈ 2.5 to 20 µM) |  |  |  |
| CC(C)(N)[C@H](NC(=O)c1ccc(C#CC#C[C@H]2CC2(CO)CO)cc1)C(=O)NO [Compound 24, N—((S)-3-amino-1-(hydroxyamino)-3-methyl-1-oxobutan-2-yl)-4-(((R)-2,2-bis(hydroxymethyl)cyclopropyl)buta-1,3-diynyl)benzamide] | 2.5 | 1 to 8 (≈ 2.5 to 20 µM) | 1 to 8 (≈ 2.5 to 20 µM) | 1 to 8 (≈ 2.5 to 20 µM) |  |  |  |
| CC(C)(N)[C@H](NC(=O)c1ccc(C#CC#CC(O)C2CC2CO)cc1)C(=O)NO (stereo partly drawn) [Compound 26, N—((S)-3-amino-1-(hydroxyamino)-3-methyl-1-oxobutan-2-yl)-4-(5-hydroxy-5-(2-(hydroxymethyl)cyclopropyl)penta-1,3-diynyl)benzamide] | 6.4 | 1 to 8 (≈ 2.5 to 20 µM) | < 1 | < 1 |  |  |  |
| CC(C)(N)[C@H](NC(=O)c1ccc(C#CC#C[C@]2(O)C[C@@H](CO)C2)cc1)C(=O)NO [Compound 27, N—((S)-3-amino-1-(hydroxyamino)-3-methyl-1-oxobutan-2-yl)-4-(((1S,3R)-1-hydroxy-3-(hydroxymethyl)cyclobutyl)buta-1,3-diynyl)benzamide] | 1.8 | 1 to 8 (≈ 2.5 to 20 µM) | < 1 | < 1 |  |  |  |
| CC(C)(N)[C@H](NC(=O)c1ccc(C#CC#CC[C@]2(O)C[C@@H](CO)C2)cc1)C(=O)NO [Compound 28, N—((S)-3-amino-1-(hydroxyamino)-3-methyl-1-oxobutan-2-yl)-4-(5-((1S,3S)-1-hydroxy-3-(hydroxymethyl)cyclobutyl)penta-1,3-diyn-1-yl)benzamide] | 1.3 | > 16 | 1 to 8 (≈ 2.42 to 19.3 µM) | 1 to 8 (≈ 2.42 to 19.3 µM) |  |  |  |
| CC(C)(N)[C@H](NC(=O)c1ccc(C#CC#C[C@H]2C[C@@](O)(CO)C2)cc1)C(=O)NO [Compound 29, N—((S)-3-amino-1-(hydroxyamino)-3-methyl-1-oxobutan-2-yl)-4-(((1R,3S)-3-hydroxy-3-(hydroxymethyl)cyclobutyl)buta-1,3-diynyl)benzamide] | 2.9 | 1 to 8 (≈ 2.5 to 20 µM) | < 1 | < 1 |  |  |  |
| CC(C)(N)[C@H](NC(=O)c1ccc(C#CC#C[C@@H]2C[C@@H](O)[C@@H](O)C2)cc1)C(=O)NO [Compound 32, N—((S)-3-amino-1-(hydroxyamino)-3-methyl-1-oxobutan-2-yl)-4-(((1S,3R,4S)-3,4-dihydroxycyclopentyl)buta-1,3-diynyl)benzamide] | 5.5 | 1 to 8 (≈ 2.5 to 20 µM) | < 1 | < 1 |  |  |  |
| CC(C)(N)[C@H](NC(=O)c1ccc(C#CC#C[C@H]2CC[C@@](O)(CO)CC2)cc1)C(=O)NO [Compound 33A, N—((S)-3-amino-1-(hydroxyamino)-3-methyl-1-oxobutan-2-yl)-4-(((1S,4R)-4-hydroxy-4-(hydroxymethyl)cyclohexyl)buta-1,3-diynyl)benzamide] | 2.6 | 8 to 16 (≈ 18.7 to 37.4 µM) | < 1 | 1 to 8 (≈ 2.34 to 18.7 µM) |  |  |  |
